In US4659734A, “Olinecarboxylic acid derivatives” (Nippon Shinyaku Co., Ltd., priority 1983, dated 1987):
In brackets after ≈: the same amount, converted by molar mass.

Columns and labels:
[1] = test system: Acimetobacter calcoaceticus; assay: Mouse intraperitoneal infection, survival after one week; format: in vivo, ddY strain mice; conditions: po, 1 × 10^7 per mouse, one dose per os 2 h after infection
Protocol: (§1) ddY--Strain mice (male; body weight 20±1 grams) of SPF were innoculated with the bacteria set forth in Table 2 by administration of a supension of the bacterial in 4% mucin solution into the abdominal cavity. A compound of the invention was given one time per os two hours after the infection, and, from the survival rate after one week. 50% effective doses (ED50) were calculated by the Behrens-Karber method.

[2] = test system: Escherichia coli KC-14; assay: as above; format: in vivo, ddY strain mice; conditions: KC14, po; Escherichia coli KC-14, 5 × 10^4 per mouse; one dose per os 2 h after infection
Protocol: as §1

[3] = test system: Klebsiella pneumoniae K-1966; assay: as above; format: in vivo, ddY strain mice; conditions: K1966, po; Klebsiella pneumoniae K-1966, 3 × 10^3 per mouse; one dose per os 2 h after infection
Protocol: as §1

[4] = test system: Proteus mirabilis 181; assay: as above; format: in vivo, ddY strain mice; conditions: po; Proteus mirabilis 181, 2 × 10^7 per mouse; one dose per os 2 h after infection
Protocol: as §1

[5] = test system: Pseudomonas aeruginosa E-2; assay: as above; format: in vivo, ddY strain mice; conditions: E2, po; Pseudomonas aeruginosa E-2, 2 × 10^5 per mouse; one dose per os 2 h after infection; Behrens-Karber
Protocol: as §1

[6] = test system: Serracia marcescens T-55; assay: as above; format: in vivo, ddY strain mice; conditions: po; Serracia marcescens T-55, 5 × 10^6 per mouse; one dose per os 2 h after infection
Protocol: as §1

[7] = test system: Staphylococcus aureus Smith; assay: as above; format: in vivo, ddY strain mice; conditions: po, 3 × 10^6 per mouse, one dose per os 2 h after infection
Protocol: as §1

[8] = test system: Pseudomonas aeruginosa E-2; assay: Ascending urinary tract infection; format: in vivo, ICR female mice
Protocol: ICR Female mice (body weight 20±1 grams) of SPE strain were used in the experiments. The mice were not given any water for seventeen hours, then compulsorily urinated, anesthesized by the administration of 60 mg/kg of pentobarbital into the abdominal cavity, then 1.5×10^5 of Pseudomonas aeruginosa E-2 strain were impregnated into the bladder via the urinary tract, and the external urinary meatus was stopped for four hours by a pin clip, whereupon the mice were infected in the ascending urinary tract.
The compound of Example 22b was given once orally, 4 hours after infection, then twice a day, and the administration was continued for three days. On the fourth day, the kidney was isolated, homogenized in a physiological saline solution, and the number of bacteria was calculated on suitable medium such as, for example, Drigalski medium. If the number of bacteria per one gram of kidney was less than […], then the compound was judged as "effective".

[9] = Blood serum concentration, disc method; format: in vivo, ddY strain mice; conditions: mouse, serum, po, 60 mg/kg per os, average ± standard error
Protocol: In this experiment, ddY strain mice (male; body weight 30±2 grams) were used. Sixty mg/kg of the compound of Example 22b were given per os. The blood concentration was calculated from calibration curves obtained by the disc method using Escherichia coli NIHJ strain as tested bacteria and diluting the test compound of mice serum.

[10] = Excretion into urine and recovery, disc method; format: in vivo, ddY strain mice; conditions: 60 mg/kg per os, average ± standard error
Protocol: In the measurement of excretion into urine, ddY strain mice (male; body weights 30±2 grams) were used. Sixty mg/kg of the compound of Example 22b was administered per os and the mice were fed in metabolic cages and their urine was collected.
Therefore, in the quantitative determination, the calibration curve of the compound of Example 21, calculated by the disc method using Escherichia coli NIHJ strain and using the compound dissolved in phosphoric acid buffer (pH 8.0; 1/15M) was used. Table 5 reports the excretion into urine with respect to time, total recovery amount and recovery rate of the compound of Example 22b.

[11] = test system: Bacillus subtilis ATCC 6633; assay: Minimum growth inhibiting concentration, Japan Chemotherapeutic Society method; format: cell-based; conditions: ATCC6633; Bacillus subtilis ATCC 6633, Gram +; 5% horse blood added agar medium; read-out: Minimum Growth Inhibiting Concn
Protocol: (§2) The Antibacterial activity of the compounds of Examples 14, 13, 22b, 21 and 15 was determined in accordance with the method of Japan Chemotherapeutic Society (cf. Nippon Kagaku Ryoho Gakkai Shi, volume 29, number 1, pages 76 to 79, 1981) and the results are reported in Table 1, which follows. | *5% Horse blood added agar medium for sensitivity measurement being used.

[12] = test system: Streptococcus pneumoniae Type I; assay: as above; format: cell-based; conditions: Gram +, 5% horse blood added agar medium, read-out: Minimum Growth Inhibiting Concn
Protocol: as §2

[13] = test system: Streptococcus pyogenes S-23; assay: as above; format: cell-based; conditions: S23; Streptococcus pyogenes S-23, Gram +; 5% horse blood added agar medium; read-out: Minimum Growth Inhibiting Concn
Protocol: as §2

[14] = test system: Acinetobacter calcoacelicus 54; assay: as above; format: cell-based; conditions: Acinetobacter calcoacelicus 54, Gram -; read-out: Minimum Growth Inhibiting Concn
Protocol: (§3) The Antibacterial activity of the compounds of Examples 14, 13, 22b, 21 and 15 was determined in accordance with the method of Japan Chemotherapeutic Society (cf. Nippon Kagaku Ryoho Gakkai Shi, volume 29, number 1, pages 76 to 79, 1981) and the results are reported in Table 1, which follows.

[15] = test system: Alcaligenes faecalis ATCC 8750; assay: as above; format: cell-based; conditions: ATCC8750; Alcaligenes faecalis ATCC 8750, Gram -; read-out: Minimum Growth Inhibiting Concn
Protocol: as §3

[16] = test system: Escherichia coli KC-14; assay: as above; format: cell-based; conditions: KC14; Escherichia coli KC-14, Gram -; read-out: Minimum Growth Inhibiting Concn
Protocol: as §3

[17] = test system: Escherichia coli NIHJ JC-2; assay: as above; format: cell-based; conditions: NIHJJC2; Escherichia coli NIHJ JC-2, Gram -; read-out: Minimum Growth Inhibiting Concn
Protocol: as §3

[18] = test system: Klebsiella pneumoniae K-1966; assay: as above; format: cell-based; conditions: K1966; Klebsiella pneumoniae K-1966, Gram -; read-out: Minimum Growth Inhibiting Concn
Protocol: as §3

[19] = test system: Listeria monocytogenes RIMD 1205020; assay: as above; format: cell-based; conditions: RIMD1205020; Listeria monocytogenes RIMD 1205020, Gram +; read-out: Minimum Growth Inhibiting Concn
Protocol: as §3

[20] = test system: Micrococcus luteus ATCC 9341; assay: as above; format: cell-based; conditions: ATCC9341; Micrococcus luteus ATCC 9341, Gram +; read-out: Minimum Growth Inhibiting Concn
Protocol: as §3

[21] = test system: Proteus mirabilis 181; assay: as above; format: cell-based; conditions: Proteus mirabilis 181, Gram -; read-out: Minimum Growth Inhibiting Concn
Protocol: as §3

[22] = test system: Proteus vulgaris DX-19; assay: as above; format: cell-based; conditions: DX19; Proteus vulgaris DX-19, Gram -; read-out: Minimum Growth Inhibiting Concn
Protocol: as §3

[23] = test system: Pseudomonas aeruginosa E-2; assay: as above; format: cell-based; conditions: E2; Pseudomonas aeruginosa E-2, Gram -; read-out: Minimum Growth Inhibiting Concn
Protocol: as §3

[24] = test system: Pseudomonas aeruginosa No. 12; assay: as above; format: cell-based; conditions: Pseudomonas aeruginosa No. 12, Gram -; read-out: Minimum Growth Inhibiting Concn
Protocol: as §3

[25] = test system: Pseudomonas cepacia ATCC 25416; assay: as above; format: cell-based; conditions: Burkholderia cepacia, ATCC25416; Pseudomonas cepacia ATCC 25416, Gram -; read-out: Minimum Growth Inhibiting Concn
Protocol: as §3

[26] = test system: Pseudomonas maltophilia ATCC 13637; assay: as above; format: cell-based; conditions: Stenotrophomonas maltophilia, ATCC13637; Pseudomonas maltophilia ATCC 13637, Gram -; read-out: Minimum Growth Inhibiting Concn
Protocol: as §3

[27] = test system: Serracia marcescens IFO 3736; assay: as above; format: cell-based; conditions: Serracia marcescens IFO 3736, Gram -; read-out: Minimum Growth Inhibiting Concn
Protocol: as §3

[28] = test system: Staphylococcus aureus 209-PJC; assay: as above; format: cell-based; conditions: Gram +, read-out: Minimum Growth Inhibiting Concn
Protocol: as §3

[29] = test system: Staphylococcus aureus Smith; assay: as above; format: cell-based; conditions: Gram +, read-out: Minimum Growth Inhibiting Concn
Protocol: as §3

[30] = Acute toxicity; conditions: mouse, in vivo; oral, groups of ten ddY male mice; read-out: 50% Lethal Doses (LD50)
Protocol: Groups of ten ddY strain male mice (body weights: 20±1 grams) of the test compound were orally administered to determine the LD50. There was […] in which many mice died when the dose was 2000 mg/kg or less.

CCn1cc(C(=O)O)c(=O)c2cc(F)c(N3CCNCC3)cc21 [Comparison Compd., 1-ethyl-6-fluoro-7-(1-piperazinyl)-4-oxo-1,4-dihydroquinoline-3-carboxylicacid, reference compound]
ED50 [1]: > 35 mg/kg
ED50 [2]: 3.3 mg/kg
ED50 [3]: > 13 mg/kg
ED50 [4]: 29 mg/kg
ED50 [5]: 260 mg/kg
ED50 [6]: 6 mg/kg
ED50 [7]: > 25 mg/kg
Number Of Mice Where Compound Was Effective/Total Mice Tested ([8]; 3.13 mg/kg oral): 0/7
Number Of Mice Where Compound Was Effective/Total Mice Tested ([8]; 6.25 mg/kg oral): 0/7
Number Of Mice Where Compound Was Effective/Total Mice Tested ([8]; 12.5 mg/kg oral): 0/7
Number Of Mice Where Compound Was Effective/Total Mice Tested ([8]; 25 mg/kg oral): 1/7
Number Of Mice Where Compound Was Effective/Total Mice Tested ([8]; 50 mg/kg oral): 4/7
Number Of Mice Where Compound Was Effective/Total Mice Tested ([8]; 100 mg/kg oral, 4 h after infection then twice a day, three days): 6/7
ED50 ([8]; Pseudomonas aeruginosa, E2, in Mus musculus, 72 h, ascending urinary tract infection, oral, three days, read-out: 50% Effective Dose): 58 mg/kg
concentration at 0.25 h ([9]; 0.25 hours): 640 ± 90 ng/mL
concentration at 0.5 h ([9]; 0.5 hours): 900 ± 290 ng/mL
concentration at 1 h ([9]; 1 hour): 580 ± 100 ng/mL
concentration at 2 h ([9]; 2 hours): 330 ± 150 ng/mL
concentration at 4 h ([9]; 4 hours): 90 ± 10 ng/mL
Amount excreted into Urine ([10]; 0-3 hrs): 60.25 ± 17.9 µg
Amount excreted into Urine ([10]; 3-6 hrs): 29.25 ± 9.0 µg
Amount excreted into Urine ([10]; 6-24 hrs): 19.78 ± 6.6 µg

C=CCN1CCN(c2cc3c(cc2F)c(=O)c(C(=O)O)c2sccn23)CC1 [Example 15, 8-(4-Allyl-1-piperazinyl)-7-fluoro-5-oxo-5H-thiazolo(3,2-a)-quinoline-4-carboxylic acid]
MIC [11]: 0.0063 µg/mL (≈ 0.0163 µM)
MIC [12]: 0.39 µg/mL (≈ 1.01 µM)
MIC [13]: 0.1 µg/mL (≈ 0.258 µM)
MIC [14]: 0.39 µg/mL (≈ 1.01 µM)
MIC [15]: 0.78 µg/mL (≈ 2.01 µM)
MIC [16]: 0.05 µg/mL (≈ 0.129 µM)
MIC [17]: 0.2 µg/mL (≈ 0.516 µM)
MIC [18]: 0.05 µg/mL (≈ 0.129 µM)
MIC [19]: 0.39 µg/mL (≈ 1.01 µM)
MIC [20]: 1.56 µg/mL (≈ 4.03 µM)
MIC [21]: 0.2 µg/mL (≈ 0.516 µM)
MIC [22]: 0.05 µg/mL (≈ 0.129 µM)
MIC [23]: 1.56 µg/mL (≈ 4.03 µM)
MIC [24]: 0.78 µg/mL (≈ 2.01 µM)
MIC [25]: 1.56 µg/mL (≈ 4.03 µM)
MIC [26]: 0.0063 µg/mL (≈ 0.0163 µM)
MIC [27]: 0.39 µg/mL (≈ 1.01 µM)
MIC [28]: 0.025 µg/mL (≈ 0.0645 µM)
MIC [29]: 0.013 µg/mL (≈ 0.0336 µM)
ED50 [1]: > 35 mg/kg
ED50 [2]: 2 mg/kg
ED50 [3]: 3.3 mg/kg
ED50 [5]: 10.7 mg/kg
LD50 [30]: > 2000 mg/kg

Cc1csc2c(C(=O)O)c(=O)c3cc(F)c(N4CCNCC4)cc3n12 [Example 21, 7-fluoro-1-methyl-5-oxo-8-(1-piperazinyl)-5H-thiazolo(3,2-a)-quinoline-4-carboxylic acid]
MIC [11]: 0.0063 µg/mL (≈ 0.0174 µM)
MIC [12]: 0.2 µg/mL (≈ 0.553 µM)
MIC [13]: 0.1 µg/mL (≈ 0.277 µM)
MIC [14]: 0.2 µg/mL (≈ 0.553 µM)
MIC [15]: 0.78 µg/mL (≈ 2.16 µM)
MIC [16]: 0.0063 µg/mL (≈ 0.0174 µM)
MIC [17]: 0.025 µg/mL (≈ 0.0692 µM)
MIC [18]: 0.013 µg/mL (≈ 0.036 µM)
MIC [19]: 0.2 µg/mL (≈ 0.553 µM)
MIC [20]: 0.39 µg/mL (≈ 1.08 µM)
MIC [21]: 0.05 µg/mL (≈ 0.138 µM)
MIC [22]: 0.0016 µg/mL (≈ 0.00443 µM)
MIC [23]: 0.39 µg/mL (≈ 1.08 µM)
MIC [24]: 0.39 µg/mL (≈ 1.08 µM)
MIC [25]: 0.2 µg/mL (≈ 0.553 µM)
MIC [26]: 0.013 µg/mL (≈ 0.036 µM)
MIC [27]: 0.2 µg/mL (≈ 0.553 µM)
MIC [28]: 0.025 µg/mL (≈ 0.0692 µM)
MIC [29]: 0.013 µg/mL (≈ 0.036 µM)
LD50 [30]: > 2000 mg/kg
